Numbers after ± are expanded uncertainties.
Settings: 101.33 kPa, Liquid, Hot wire method

Cc1cccc(C)c1C [1,2,3-trimethylbenzene]
Settings	thermal conductivity [W/m/K]	thermal diffusivity [m2/s]
257.62 K	0.1341 ± 0.0019	–
257.83 K	0.134 ± 0.0019	–
257.99 K	0.134 ± 0.0019	–
258.45 K	–	8.6e-08 ± 1.9e-09
259 K	–	8.55e-08 ± 1.9e-09
259.4 K	–	8.56e-08 ± 1.9e-09
276.36 K	0.1312 ± 0.0018	–
276.58 K	0.1312 ± 0.0018	–
276.73 K	0.1311 ± 0.0018	–
277.15 K	–	8.25e-08 ± 1.9e-09
277.71 K	–	8.21e-08 ± 1.8e-09
278.1 K	–	8.2e-08 ± 1.8e-09
283.35 K	0.1303 ± 0.0018	–
283.57 K	0.1302 ± 0.0018	–
283.74 K	0.1302 ± 0.0018	–
284.17 K	–	8.15e-08 ± 1.8e-09
284.73 K	–	8.14e-08 ± 1.8e-09
285.14 K	–	8.15e-08 ± 1.8e-09
295.58 K	0.1281 ± 0.0018	–
295.81 K	0.1279 ± 0.0018	–
295.99 K	0.1279 ± 0.0018	–
296.43 K	–	8.04e-08 ± 1.8e-09
297.01 K	–	8.01e-08 ± 1.8e-09
297.45 K	–	8.04e-08 ± 1.8e-09
312.79 K	0.1252 ± 0.0018	–
313.04 K	0.1252 ± 0.0018	–
313.21 K	0.1251 ± 0.0018	–
313.65 K	–	7.79e-08 ± 1.7e-09
314.26 K	–	7.81e-08 ± 1.7e-09
314.68 K	–	7.78e-08 ± 1.7e-09
330.74 K	0.1218 ± 0.0017	–
330.99 K	0.1218 ± 0.0017	–
331.17 K	0.1217 ± 0.0017	–
331.59 K	–	7.49e-08 ± 1.7e-09
332.23 K	–	7.53e-08 ± 1.7e-09
332.65 K	–	7.51e-08 ± 1.7e-09

Cc1ccc(C)c(C)c1 [1,2,4-trimethylbenzene]
Settings	thermal conductivity [W/m/K]	thermal diffusivity [m2/s]
257.58 K	0.1345 ± 0.0011	–
257.79 K	0.1344 ± 0.0011	–
257.93 K	0.1344 ± 0.0011	–
258.32 K	–	8.89e-08 ± 1.7e-09
258.85 K	–	8.91e-08 ± 1.7e-09
259.23 K	–	8.92e-08 ± 1.7e-09
276.33 K	0.1314 ± 0.001	–
276.54 K	0.1313 ± 0.001	–
276.69 K	0.1312 ± 0.001	–
277.09 K	–	8.61e-08 ± 1.7e-09
277.61 K	–	8.58e-08 ± 1.7e-09
277.99 K	–	8.6e-08 ± 1.7e-09
283.32 K	0.1301 ± 0.001	–
283.54 K	0.13 ± 0.001	–
283.68 K	0.1299 ± 0.001	–
284.07 K	–	8.48e-08 ± 1.6e-09
284.63 K	–	8.52e-08 ± 1.6e-09
284.98 K	–	8.47e-08 ± 1.6e-09
295.54 K	0.1277 ± 0.001	–
295.76 K	0.1277 ± 0.001	–
295.91 K	0.1275 ± 0.001	–
296.3 K	–	8.26e-08 ± 1.6e-09
296.84 K	–	8.28e-08 ± 1.6e-09
297.21 K	–	8.25e-08 ± 1.6e-09
312.75 K	0.1244 ± 0.001	–
312.98 K	0.1242 ± 0.00099	–
313.13 K	0.1241 ± 0.00099	–
313.53 K	–	8e-08 ± 1.5e-09
314.08 K	–	8e-08 ± 1.5e-09
314.44 K	–	7.96e-08 ± 1.5e-09
330.69 K	0.1205 ± 0.00096	–
330.93 K	0.1205 ± 0.00096	–
331.09 K	0.1204 ± 0.00096	–
331.46 K	–	7.65e-08 ± 1.5e-09
332.04 K	–	7.69e-08 ± 1.5e-09
332.43 K	–	7.68e-08 ± 1.5e-09

Cc1ccccc1C [1,2-dimethylbenzene]
Settings	thermal conductivity [W/m/K]	thermal diffusivity [m2/s]
257.75 K	0.1368 ± 0.0011	–
257.96 K	0.1369 ± 0.0011	–
258.1 K	0.1368 ± 0.0011	–
258.47 K	–	9.16e-08 ± 1.8e-09
259 K	–	9.21e-08 ± 1.8e-09
259.35 K	–	9.19e-08 ± 1.8e-09
277.07 K	0.1334 ± 0.0011	–
277.27 K	0.1333 ± 0.0011	–
277.42 K	0.1333 ± 0.0011	–
277.79 K	–	8.78e-08 ± 1.7e-09
278.28 K	–	8.75e-08 ± 1.7e-09
278.66 K	–	8.79e-08 ± 1.7e-09
295.56 K	0.1296 ± 0.001	–
295.78 K	0.1296 ± 0.001	–
295.91 K	0.1294 ± 0.001	–
296.29 K	–	8.46e-08 ± 1.6e-09
296.81 K	–	8.48e-08 ± 1.6e-09
297.15 K	–	8.42e-08 ± 1.6e-09
312.07 K	0.1259 ± 0.001	–
312.29 K	0.1258 ± 0.001	–
312.44 K	0.1257 ± 0.001	–
312.82 K	–	8.18e-08 ± 1.6e-09
313.34 K	–	8.17e-08 ± 1.6e-09
313.7 K	–	8.15e-08 ± 1.6e-09
328.72 K	0.1222 ± 0.00098	–
328.94 K	0.122 ± 0.00098	–
329.09 K	0.1219 ± 0.00098	–
329.45 K	–	7.83e-08 ± 1.5e-09
329.98 K	–	7.83e-08 ± 1.5e-09
330.35 K	–	7.81e-08 ± 1.5e-09

Cc1cc(C)cc(C)c1 [1,3,5-trimethylbenzene]
Settings	thermal conductivity [W/m/K]	thermal diffusivity [m2/s]
258.66 K	0.1434 ± 0.0014	–
258.83 K	0.1434 ± 0.0014	–
258.95 K	0.1433 ± 0.0014	–
259.23 K	–	9.77e-08 ± 2e-09
259.67 K	–	9.83e-08 ± 2e-09
259.96 K	–	9.82e-08 ± 2e-09
276.88 K	0.14 ± 0.0014	–
277.04 K	0.1398 ± 0.0014	–
277.16 K	0.1398 ± 0.0014	–
277.47 K	–	9.49e-08 ± 1.9e-09
277.87 K	–	9.44e-08 ± 1.9e-09
278.16 K	–	9.45e-08 ± 1.9e-09
296.36 K	0.1358 ± 0.0013	–
296.53 K	0.1356 ± 0.0013	–
296.66 K	0.1356 ± 0.0013	–
296.93 K	–	8.99e-08 ± 1.8e-09
297.35 K	–	9.01e-08 ± 1.8e-09
297.65 K	–	9.02e-08 ± 1.8e-09
313.44 K	0.1319 ± 0.0013	–
313.6 K	0.1317 ± 0.0013	–
313.73 K	0.1317 ± 0.0013	–
314.03 K	–	8.71e-08 ± 1.8e-09
314.41 K	–	8.63e-08 ± 1.7e-09
314.7 K	–	8.63e-08 ± 1.7e-09
331.99 K	0.1274 ± 0.0012	–
332.16 K	0.1274 ± 0.0012	–
332.28 K	0.1272 ± 0.0012	–
332.56 K	–	8.28e-08 ± 1.7e-09
332.96 K	–	8.25e-08 ± 1.7e-09
333.24 K	–	8.21e-08 ± 1.7e-09

C1=CCCC=C1 [1,3-cyclohexadiene]
Settings	thermal conductivity [W/m/K]	thermal diffusivity [m2/s]
258.35 K	0.1451 ± 0.0014	–
258.52 K	0.1449 ± 0.0014	–
258.62 K	0.1448 ± 0.0014	–
258.89 K	–	8.41e-08 ± 1.7e-09
259.3 K	–	8.45e-08 ± 1.7e-09
259.56 K	–	8.41e-08 ± 1.7e-09
264.66 K	0.1428 ± 0.0014	–
264.8 K	0.1426 ± 0.0014	–
264.89 K	0.1424 ± 0.0014	–
265.09 K	–	7.72e-08 ± 1.6e-09
265.41 K	–	7.72e-08 ± 1.6e-09
265.61 K	–	7.69e-08 ± 1.6e-09
279.17 K	0.138 ± 0.0013	–
279.31 K	0.1379 ± 0.0013	–
279.41 K	0.1378 ± 0.0013	–
279.59 K	–	7.36e-08 ± 1.5e-09
279.93 K	–	7.41e-08 ± 1.5e-09
280.16 K	–	7.41e-08 ± 1.5e-09
296.25 K	0.1334 ± 0.0013	–
296.51 K	0.1332 ± 0.0013	–
296.69 K	0.1331 ± 0.0013	–
297.24 K	–	8.95e-08 ± 1.8e-09
297.94 K	–	8.98e-08 ± 1.8e-09
298.42 K	–	8.98e-08 ± 1.8e-09
313.95 K	0.1278 ± 0.0012	–
314.22 K	0.1276 ± 0.0012	–
314.41 K	0.1275 ± 0.0012	–
314.96 K	–	8.51e-08 ± 1.7e-09
315.67 K	–	8.53e-08 ± 1.7e-09
316.17 K	–	8.51e-08 ± 1.7e-09
328.56 K	0.1232 ± 0.0012	–
328.84 K	0.1231 ± 0.0012	–
329.08 K	0.1231 ± 0.0012	–
329.6 K	–	8.17e-08 ± 1.6e-09
330.32 K	–	8.17e-08 ± 1.6e-09
330.99 K	–	8.19e-08 ± 1.6e-09

Cc1cccc(C)c1 [1,3-dimethylbenzene]
Settings	thermal conductivity [W/m/K]	thermal diffusivity [m2/s]
258.17 K	0.1393 ± 0.0011	–
258.42 K	0.1391 ± 0.0011	–
258.58 K	0.1391 ± 0.0011	–
259.01 K	–	9.79e-08 ± 1.9e-09
259.67 K	–	9.79e-08 ± 1.9e-09
260.12 K	–	9.82e-08 ± 1.9e-09
275.04 K	0.1353 ± 0.0011	–
275.28 K	0.1353 ± 0.0011	–
275.44 K	0.1352 ± 0.0011	–
275.95 K	–	9.46e-08 ± 1.8e-09
276.57 K	–	9.45e-08 ± 1.8e-09
277 K	–	9.44e-08 ± 1.8e-09
287.36 K	0.1323 ± 0.001	–
287.6 K	0.1322 ± 0.001	–
287.77 K	0.132 ± 0.001	–
288.27 K	–	9.16e-08 ± 1.8e-09
288.91 K	–	9.19e-08 ± 1.8e-09
289.35 K	–	9.17e-08 ± 1.8e-09
294.07 K	0.1305 ± 0.001	–
294.32 K	0.1305 ± 0.001	–
294.49 K	0.1304 ± 0.001	–
294.99 K	–	9.03e-08 ± 1.7e-09
295.64 K	–	9.06e-08 ± 1.7e-09
296.09 K	–	9.03e-08 ± 1.7e-09
311.74 K	0.126 ± 0.001	–
312 K	0.1259 ± 0.001	–
312.18 K	0.1258 ± 0.001	–
312.68 K	–	8.65e-08 ± 1.7e-09
313.34 K	–	8.66e-08 ± 1.7e-09
313.8 K	–	8.64e-08 ± 1.7e-09
328.79 K	0.1218 ± 0.00098	–
329.04 K	0.1216 ± 0.00097	–
329.22 K	0.1215 ± 0.00097	–
329.74 K	–	8.28e-08 ± 1.6e-09
330.36 K	–	8.22e-08 ± 1.6e-09
330.83 K	–	8.22e-08 ± 1.6e-09

C1=CCC=CC1 [1,4-cyclohexadiene]
Settings	thermal conductivity [W/m/K]	thermal diffusivity [m2/s]
258.46 K	0.1586 ± 0.0015	–
258.67 K	0.1584 ± 0.0015	–
258.82 K	0.1583 ± 0.0015	–
259.36 K	–	1.06e-07 ± 2.1e-09
259.93 K	–	1.05e-07 ± 2.1e-09
260.35 K	–	1.05e-07 ± 2.1e-09
264.86 K	0.1564 ± 0.0015	–
265.08 K	0.1563 ± 0.0015	–
265.23 K	0.1562 ± 0.0015	–
265.75 K	–	1.04e-07 ± 2.1e-09
266.36 K	–	1.04e-07 ± 2.1e-09
266.77 K	–	1.04e-07 ± 2.1e-09
279.38 K	0.1514 ± 0.0015	–
279.6 K	0.1512 ± 0.0015	–
279.76 K	0.1511 ± 0.0015	–
280.29 K	–	9.95e-08 ± 2e-09
280.9 K	–	9.93e-08 ± 2e-09
281.33 K	–	9.92e-08 ± 2e-09
296.2 K	0.1455 ± 0.0014	–
296.43 K	0.1453 ± 0.0014	–
296.6 K	0.1452 ± 0.0014	–
297.14 K	–	9.5e-08 ± 1.9e-09
297.75 K	–	9.45e-08 ± 1.9e-09
298.19 K	–	9.45e-08 ± 1.9e-09
313.9 K	0.1393 ± 0.0014	–
314.13 K	0.139 ± 0.0014	–
314.31 K	0.139 ± 0.0014	–
314.86 K	–	9.01e-08 ± 1.8e-09
315.48 K	–	8.95e-08 ± 1.8e-09
315.93 K	–	8.95e-08 ± 1.8e-09
328.51 K	0.1343 ± 0.0013	–
328.75 K	0.1341 ± 0.0013	–
328.93 K	0.134 ± 0.0013	–
329.48 K	–	8.61e-08 ± 1.7e-09
330.11 K	–	8.57e-08 ± 1.7e-09
330.58 K	–	8.57e-08 ± 1.7e-09
